Source: patent US8470370B2, “Controlled release formulations” (Aegis Therapeutics, LLC, priority 2007, dated 2013)

Key:
[1] = Solubility of folic acid in water and 0.1 M sodium bicarbonate; format: physicochemical
Experimental: FIGS. 20 and 21 show several examples of these hydrogels. A-4 is a hydrogel of 2% sucrose stearate/sucrose distearate containing 2.5 mg/ml of folic acid. […] F-4 is a similar hydrogel containing 1 mM curcumin formed from 2% sucrose stearate/sucrose distearate in 0.1M sodium bicarbonate again after heating to 45 degrees C., vortexing to distribute the curcumin and letting the hydrogel form upon cooling to room temperature.

[2] = Curcumin concentration in tetradecylmaltoside hydrogel versus solubility in water; format: physicochemical
Source text: Curcumin was also used in the preparation of hydrogels. Curcumin is a natural product isolated from the root of Curcuma longa from which the spice turmeric is obtained. It has been reported to have potent antioxidative, anti-inflammatory and antiseptic properties, but has extremely low solubility in water and poor bioavailability which limits its pharmaceutical use. By encapsulating curcumin in a hydrogel composed of 2% tetradecylmaltoside a concentration of the compound in the gel can be obtained which is about 33,000 times higher than the solubility of curcumin in water, for example, 1×10^−3 M in the hydrogel vs. 3×10^−8 M in water. The resulting gels are yellow or yellow-orange in color depending on whether sodium bicarbonate is present during the formulation of the gel (see FIG. 13). FIG. 13 is a pictorial representation showing hydrogels of curcumin. Sample E-2 is a hydrogel composed of 2% tetradecylmaltoside and 1 mM curcumin. Sample F-2 is a hydrogel composed of 2% tetradecylmaltoside, 1 mM curcumin, and 0.1 M sodium bicarbonate.

SMILES	solubility of folic acid ([1]; 0.1 M sodium bicarbonate, 2.5 mg/ml for sample B-5)	solubility of folic acid ([1]; water, 2.5 mg/ml for sample A-5)	concentration of curcumin in the hydrogel ([2]; 2% tetradecylmaltoside hydrogel)	concentration in gel relative to solubility in water ([2]; 2% tetradecylmaltoside hydrogel vs water)
Nc1nc2ncc(CNc3ccc(C(=O)N[C@@H](CCC(=O)O)C(=O)O)cc3)nc2c(=O)[nH]1 [Folic acid, folic acid]	completely dissolves	poorly soluble	–	–
COc1cc(/C=C/C(=O)CC(=O)/C=C/c2ccc(O)c(OC)c2)ccc1O [curcumin]	–	–	1000 µM	about 33,000 times
